Test results taken from ChEMBL document CHEMBL5331046, “Disulfiram and dithiocarbamate analogues demonstrate promising antischistosomal effects” (Eur J Med Chem, 2022).
The source made the active and inactive calls. The calls are words filed in the database; no cut-off is given here.

Assays:
Schistosoma mansoni [1] = test: Antischistosomal activity against Schistosoma mansoni couples assessed as pairing instability at 100 uM measured upto 72 hrs by bright field microscopy; format: functional
Schistosoma mansoni [2] = test: Antischistosomal activity against Schistosoma mansoni couples assessed as inhibition of eggs production at 100 uM measured upto 72 hrs by bright field microscopy; format: functional; design: scale not given: the % may be the effect or the level left
Schistosoma mansoni [3] = test: Antischistosomal activity against Schistosoma mansoni couples assessed as decrease in pairing stability at 5 uM measured upto 72 hrs by bright field microscopy; format: functional; design: scale not given: the % may be the effect or the level left
Schistosoma mansoni [4] = test: Antischistosomal activity against Schistosoma mansoni couples assessed as tegument damage at 50 uM measured upto 72 hrs by bright field microscopy; format: functional, organism-based
Schistosoma mansoni [5] = test: Antischistosomal activity against Schistosoma mansoni couples assessed as gut dilations at 50 uM measured upto 72 hrs by bright field microscopy; format: functional, organism-based
HepG2 [6] = test: Cytotoxicity against human HepG2 cells assessed as reduction in cell viability upto 50 uM by WST-1 assay; format: toxicity, cell-based; conditions: hepg2, 50 µM
Schistosoma mansoni [7] = test: Antischistosomal activity against Schistosoma mansoni couples assessed as reduction in pairing stability at 50 uM measured upto 72 hrs by bright field microscopy; format: functional, organism-based
Schistosoma mansoni [8] = test: Antischistosomal activity against Schistosoma mansoni couples assessed as intestinal dilations and tegument damage at 50 uM measured upto 72 hrs by bright field microscopy; format: functional, organism-based
Schistosoma mansoni [9] = test: Antischistosomal activity against Schistosoma mansoni couples assessed as inhibition of eggs production at 50 uM measured upto 72 hrs by bright field microscopy; format: functional, organism-based
LS174T [10] = test: Cytotoxicity against human LS174T cells assessed as reduction in cell vaibility upto 50 uM by WST-1 assay; format: toxicity, cell-based
Schistosoma mansoni [11] = test: Antischistosomal activity against Schistosoma mansoni couples at 50 uM measured upto 72 hrs by bright field microscopy; format: functional, organism-based
Schistosoma mansoni [12] = test: Antischistosomal activity against Schistosoma mansoni couples at 25 uM measured upto 72 hrs by bright field microscopy; format: functional, organism-based
Schistosoma mansoni [13] = test: Antischistosomal activity against Schistosoma mansoni couples assessed as decrease in parasite motility at 100 uM measured upto 72 hrs by bright field microscopy; format: functional; design: scale not given: the % may be the effect or the level left
Schistosoma mansoni [14] = test: Antischistosomal activity against Schistosoma mansoni couples assessed as tegument damage at 100 uM measured upto 72 hrs by bright field microscopy; format: functional, organism-based
Schistosoma mansoni [15] = test: Antischistosomal activity against Schistosoma mansoni couples assessed as decrease in parasite motility at 25 uM measured upto 72 hrs by bright field microscopy; format: functional; design: scale not given: the % may be the effect or the level left
Schistosoma mansoni [16] = test: Antischistosomal activity against Schistosoma mansoni couples assessed as decrease in parasite vitality at 10 uM measured upto 72 hrs by bright field microscopy; format: functional; design: scale not given: the % may be the effect or the level left
Schistosoma mansoni [17] = test: Antischistosomal activity against Schistosoma mansoni couples assessed as couple separation at 10 uM measured upto 72 hrs by bright field microscopy; format: functional
HepG2 [18] = test: Cytotoxicity against human HepG2 cells assessed as reduction in cell viability upto 100 uM by WST-1 assay; format: toxicity, cell-based; conditions: hepg2, 100 µM
LS174T [19] = test: Cytotoxicity against human LS174T cells assessed as reduction in cell vaibility upto 100 uM by WST-1 assay; format: toxicity, cell-based
Schistosoma mansoni [20] = test: Antischistosomal activity against Schistosoma mansoni couples at 5 uM measured upto 72 hrs by bright field microscopy; format: functional, organism-based
Schistosoma mansoni [21] = test: Antischistosomal activity against Schistosoma mansoni couples assessed as reduction in pairing stability at 25 uM measured upto 72 hrs by bright field microscopy; format: functional
Schistosoma mansoni [22] = test: Antischistosomal activity against Schistosoma mansoni couples assessed as tegument damage at 25 uM measured upto 72 hrs by bright field microscopy; format: functional, organism-based
Schistosoma mansoni [23] = test: Antischistosomal activity against Schistosoma mansoni couples assessed as decrease in parasite motility at 10 uM measured upto 72 hrs by bright field microscopy; format: functional, organism-based
Schistosoma mansoni [24] = test: Antischistosomal activity against Schistosoma mansoni couples assessed as gut dilations at 25 uM measured upto 72 hrs by bright field microscopy; format: functional, organism-based
Schistosoma mansoni [25] = test: Antischistosomal activity against Schistosoma mansoni couples assessed as inhibition of eggs production at 5 uM measured upto 72 hrs by bright field microscopy; format: functional
Schistosoma mansoni [26] = test: Antischistosomal activity against Schistosoma mansoni couples assessed as intestinal dilations and tegument damage at 25 uM measured upto 72 hrs by bright field microscopy; format: functional, organism-based
Schistosoma mansoni [27] = test: Antischistosomal activity against Schistosoma mansoni couples assessed as decrease in parasite vitality at 5 uM measured upto 72 hrs by bright field microscopy; format: functional, organism-based
Schistosoma mansoni [28] = test: Antischistosomal activity against Schistosoma mansoni couples assessed as inhibition of eggs production at 25 uM measured upto 72 hrs by bright field microscopy; format: functional
LS174T [29] = test: Cytotoxicity against human LS174T cells assessed as reduction in cell viability at 100 uM by WST-1 assay; format: toxicity, cell-based
Schistosoma mansoni [30] = test: Antischistosomal activity against Schistosoma mansoni couples assessed as inhibition of eggs production at 10 uM measured upto 72 hrs by bright field microscopy; format: functional, organism-based
Schistosoma mansoni [31] = test: Antischistosomal activity against Schistosoma mansoni couples assessed as reduction in pairing stability at 10 uM measured upto 72 hrs by bright field microscopy; format: functional, organism-based
LS174T [32] = test: Cytotoxicity against human LS174T cells assessed as reduction in cell vaibility at 25 uM by WST-1 assay; format: toxicity, cell-based
Schistosoma mansoni [33] = test: Antischistosomal activity against Schistosoma mansoni couples assessed as dead worms at 25 uM measured upto 72 hrs by bright field microscopy; format: functional
Schistosoma mansoni [34] = test: Antischistosomal activity against Schistosoma mansoni couples assessed as edematous swelling of gut at 25 uM measured upto 72 hrs by bright field microscopy; format: functional, organism-based
HepG2 [35] = test: Cytotoxicity against human HepG2 cells assessed as reduction in cell vaibility at 100 uM by WST-1 assay; format: toxicity, cell-based; conditions: hepg2, 100 µM
Schistosoma mansoni [36] = test: Antischistosomal activity against Schistosoma mansoni couples at 100 uM measured upto 72 hrs by bright field microscopy; format: functional, organism-based
HepG2 [37] = test: Cytotoxicity against human HepG2 cells assessed as reduction in cell vaibility at 25 uM by WST-1 assay; format: toxicity, cell-based; conditions: hepg2, 25 µM

SMILES: CCN(CC)C(=S)SCCN1CCCCC1
- Activity (Schistosoma mansoni [1]): 100%
- Activity (Schistosoma mansoni [2]): >80%
- Activity (Schistosoma mansoni [3]): 100%

SMILES: CCN(CC)C(=S)SCc1ccc(SC)cc1
- Activity (Schistosoma mansoni [4]): Active
- Activity (Schistosoma mansoni [5]): Active
- Activity (HepG2 [6]): Non-Toxic
- Activity (Schistosoma mansoni [7]): Active
- Activity (Schistosoma mansoni [8]): Active
- Activity (Schistosoma mansoni [9]): Active
- Activity (LS174T [10]): Non-Toxic

SMILES: CCN(CC)C(=S)SCc1ccc(S(C)(=O)=O)cc1
- Activity (Schistosoma mansoni [11]): Active
- Activity (Schistosoma mansoni [12]): inactive
- Activity (Schistosoma mansoni [13]): ~60%
- Activity (Schistosoma mansoni [14]): Active

SMILES: CCN(CC)C(=S)SCC1CCCCC1
- Activity (Schistosoma mansoni [15]): 35%
- Activity (Schistosoma mansoni [16]): 90%
- Activity (Schistosoma mansoni [17]): 60%
- Activity (HepG2 [18]): Non-Toxic
- Activity (LS174T [19]): Non-Toxic

SMILES: CCN(CC)C(=S)SCc1cc(=O)oc2cc(OC)ccc12
- Activity (HepG2 [6]): Non-Toxic
- Activity (LS174T [10]): Non-Toxic
- Activity (Schistosoma mansoni [20]): Active

SMILES: CCN(CC)C(=S)SCc1ccc([N+](=O)[O-])cc1
- Activity (Schistosoma mansoni [21]): Active
- Activity (Schistosoma mansoni [4]): Active
- Activity (Schistosoma mansoni [5]): Active
- Activity (Schistosoma mansoni [22]): Active
- Activity (Schistosoma mansoni [23]): Active
- Activity (Schistosoma mansoni [7]): Active
- Activity (Schistosoma mansoni [24]): Active
- Activity (Schistosoma mansoni [25]): Active
- Activity (Schistosoma mansoni [8]): Active
- Activity (Schistosoma mansoni [9]): Active
- Activity (Schistosoma mansoni [26]): Active
- Activity (Schistosoma mansoni [27]): Active
- Activity (Schistosoma mansoni [28]): Active
- Activity (Schistosoma mansoni [3]): Active

SMILES: C[C@H](N)C(=O)N1CCN(C(=S)SCc2ccc([N+](=O)[O-])cc2)CC1.Cl
- Activity (Schistosoma mansoni [23]): inactive
- Activity (LS174T [29]): Toxic
- Activity (Schistosoma mansoni [30]): Active
- Activity (Schistosoma mansoni [31]): Active
- Activity (Schistosoma mansoni [15]): 65%
- Activity (Schistosoma mansoni [16]): Active
- Activity (LS174T [32]): Toxic
- Activity (Schistosoma mansoni [33]): <=25%
- Activity (Schistosoma mansoni [34]): Active
- Activity (HepG2 [35]): Toxic
- Activity (Schistosoma mansoni [36]): Active
- Activity (HepG2 [37]): Toxic
